Experimental data: patent US20210009673A1, “METHODS FOR REGULATING BREAST CANCERS” (priority 2018, published 2021)

Tests used:
[1] = system: Akt; test: phosphorylation of Akt in PTN-stimulated HUVS cells; format: cell-based, human; conditions: cells preincubated with EGFR inhibitor; PTN 2-20 minutes
Method: FIG. 11: FIG. 11 illustrates: human umbilical vein stromal cells not stimulated or stimulated with 50 ng/ml of PTN for 2, 5, 10 or 20 minutes were used to prepare cell lysates that were analyzed in Western blots probed with anti-phospho threonine 308 Akt (panel A), anti-phospho serine 473 Akt (panel B), anti-phospho-serine 9 GSK3β (panel C), anti-phospho-serine 33, 37 and […] β-catenin (panel D) or anti-actin antibodies (panel E). Akt was immunoprecipitated from those lysates using anti-Akt antibodies, incubated with a fusion peptide containing the 20 N-terminal amino acids of GSK3β and analyzed in Western-blots probed using anti-phospho-serine 9 GSK3β antibodies (panel F).
To pursue this pathway of nuclear import of β-catenin, HUVS cells were stimulated with PTN (50 ng/ml), lysed, and analyzed in Western blots probed with anti-phosphothreonine 308 Akt or anti-phosphoserine 473 Akt antibodies (FIG. 11, panel A and B). […]
The association of adaptor proteins that associate with specific phosphorylated sites in activated EGFR are responsible for the activation of phosphatidyl-inositol 3-kinase (PI3K). […] The cells were stimulated with PTN for 2, 5, 10, and 20 minutes, cell lysates were prepared, and the lysates were analyzed in Western blots probed with anti-phospho-Akt (Ser473), anti-phospho-GSKβ (Ser9), and anti-phospho-β-catenin (Thr42) antibodies. […]

[2] = system: MDA-MB-231 cells; test: growth of MDA-MB-231 breast cancer cells in culture (viable cell count); format: cell-based, human
Method: (§1) FIG. 22: FIG. 22 illustrates: in (A), the c-met/ALK dual inhibitor PF2341066 blocks growth of MDA-MB-231 cells. MDA-MB-231 breast cancer cells were treated with 1 nM, 10 nM, 100 nM, and 1 μM PF2341066, the number of viable cells was counted for ten days, and represented as average with standard deviation. In (B), The c-met/ALK dual inhibitor PF2341066 blocks growth of T47D cells. T47D breast cancer cells were treated with 1 nM, 10 nM, 100 nM, and 1 μM PF2341066, the number of viable cells was counted for ten days, and represented as average with standard deviation. In (C), The ALK inhibitor PF2341066 delays MDA-MB-231 cell growth as tumors in flanks of nude mice. MDA-MB-231 cells were injected in flanks of nude mice. The mice were divided in two groups, which were given 50 mg/kg PF2341066 daily by oral gavage or an equal volume of DMSO as control. Tumor size was measured daily and is represented as average tumor burden in each group.
(§2) The MDA-MB-231 (FIG. 22A) and T47D (FIG. 22B) cells were then treated with the ALK inhibitor PF2341066.
(§3) MDA-MB-231, MCF-7, and T47D cells were obtained from American Tissue Collection Center (ATCC) and grown in DMEM supplemented with 10% fetal bovine serum (FBS) and 1% penicillin/streptomycin at 37° C. in a 5% CO2 atmosphere. […]

[3] = system: T47D cells; test: growth of T47D breast cancer cells in culture (viable cell count); format: cell-based, human
Method: as §1, §2, §3

[4] = system: MDA-MB-231 cell xenograft; test: MDA-MB-231 xenograft growth in flanks of nude mice; format: in vivo; conditions: 50 mg/kg daily oral gavage
Method: as §1, with “group. […]” for “group.”
Male athymic nude mice (8 weeks old, Cby.Cg-Foxn1nu) were used. […] The sites of injection were observed daily for tumor growth beginning 1 day after injection and tumor length (L) and width (W) were measured, and tumor volume was estimate using the formula (LXW2)/2.

[5] = system: β-catenin; test: tyrosine phosphorylation of β-catenin in PTN-stimulated U87MG cells; format: cell-based, human; conditions: U87MG cells preincubated with inhibitor; 50 ng PTN/ml
Method: FIG. 1: FIG. 1 illustrates in (A) PTN stimulation of tyrosine phosphorylation of β-catenin in cells that express RPTPβ/ζ and ALK. COS7 cells transiently expressing ALK and RPTPβ/ζ were stimulated with 10 ng PTN/ml. Cell lysates were prepared and used to immunoprecipitate β-catenin. The immunoprecipitates were analyzed in Western blots probed with anti-phosphotyrosine antibodies. Lane 1, cells transfected with ALK that were not stimulated with PTN. Lane 2, cells transfected with ALK stimulated with PTN. Lane 3, cells transfected with empty vector not stimulated with PTN. Lane 4, cells transfected with empty vector stimulated with PTN. […] The immunoprecipitates were analyzed in Western blots probed with anti-phosphotyrosine antibodies. […] Cell lysates were used to immunoprecipitate β-catenin and the immunoprecipitates were analyzed in Western blots probed with anti-phospho-tyrosine antibodies and reprobed with anti-β-catenin antibodies. […] MCF-7 cells that stably express EGFR/RPTPβ/ζ not transfected with ALK were analyzed as above. […] Lysates of MCF-7 cells and lysates of MCF-7 cells stimulated with EGF were used to immunoprecipitate β-catenin and the immunoprecipitates were analyzed in Western blots probed with anti-phospho-tyrosine antibodies and separately with anti-β-catenin antibodies. […]

[6] = system: β-catenin; test: ubiquitination of β-catenin in HUVS cells (Rad23 capture); format: cell-based, human; conditions: PTN-stimulated cells pre-incubated with proteasome inhibitor
Method: FIG. 12: FIG. 12 illustrates: human umbilical vein stromal cells not stimulated (lane 1) or stimulated with 50 ng/ml of PTN for 15 (lane 2), or 30 minutes (lane 3) were used to prepare cell lysates that were incubated with Rad23-conjugated agarose beads to pull-down ubiquitinated proteins and analyzed in Western-blots probed with anti-β-catenin antibodies (upper panel) and reprobed with anti-ubiquitin antibodies (lower panel). Cells pre-incubated with LY294002 were stimulated with PTN for 15 minutes (lane 4). Cells pre-incubated with lactacystin were stimulated with PTN for 15 minutes (lane 5).
Human umbilical vein stromal cells were lysed in a buffer prepared with 50 mM Tris, pH 7.2, 150 mM NaCl pH 7.5, 1% NP40, 0.25% sodium deoxicholate, Complete EDTA-free Protease Inhibitor Cocktail and 2 mM sodium orthovanadate. […] The beads were washed 4 times with lysis buffer and analyzed using Western blots.
β-catenin is rapidly degraded through the ubiquitin proteasome proteolytic pathway, thereby setting steady state levels of β-catenin by balancing its degradation with new synthesis of this key regulatory protein. […] Proteins captured with Rad23 Sepharose were eluted and analyzed in Western blots probed with anti-β-catenin antibodies (FIG. 12, upper panel) and the blots were reprobed with anti-ubiquitin antibodies (FIG. 12, lower panel). […]

[7] = system: ALK; test: tyrosine phosphorylation of ALK in MCF-7-EGFR/RPTPβ/ζ cells; format: cell-based; conditions: EGF at 1 minute and at 5 minutes
[8] = system: β-catenin; test: tyrosine phosphorylation of β-catenin in MCF-7-EGFR/RPTPβ/ζ cells expressing ALK; format: cell-based
Method: FIG. 1: FIG. 1 illustrates in (A) PTN stimulation of tyrosine phosphorylation of β-catenin in cells that express RPTPβ/ζ and ALK. COS7 cells transiently expressing ALK and RPTPβ/ζ were stimulated with 10 ng PTN/ml. Cell lysates were prepared and used to immunoprecipitate β-catenin. The immunoprecipitates were analyzed in Western blots probed with anti-phosphotyrosine antibodies. Lane 1, cells transfected with ALK that were not stimulated with PTN. Lane 2, cells transfected with ALK stimulated with PTN. Lane 3, cells transfected with empty vector not stimulated with PTN. Lane 4, cells transfected with empty vector stimulated with PTN. In (B), ALK and RPTPβ/ζ, but not Src, are necessary for PTN to stimulate tyrosine phosphorylation of activation of β-catenin. U87MG cells and U87MG cells that had been transfected with an shRNA targeting either RPTPβ/ζ or ALK or preincubated with the src inhibitor PP2 were stimulated with 50 ng PTN/ml or not (control) and cell lysates used to immunoprecipitate β-catenin. The immunoprecipitates were analyzed in Western blots probed with anti-phosphotyrosine antibodies. […] Cell lysates were used to immunoprecipitate β-catenin and the immunoprecipitates were analyzed in Western blots probed with anti-phospho-tyrosine antibodies and reprobed with anti-β-catenin antibodies. […] MCF-7 cells that stably express EGFR/RPTPβ/ζ not transfected with ALK were analyzed as above. […] Lysates of MCF-7 cells and lysates of MCF-7 cells stimulated with EGF were used to immunoprecipitate β-catenin and the immunoprecipitates were analyzed in Western blots probed with anti-phospho-tyrosine antibodies and separately with anti-β-catenin antibodies. Lysates of MCF-7 cells transfected with ALK and stimulated with PTN, EGF or pervanadate were immunoprecipitated with anti-β-catenin antibodies and the immunoprecipitates were analyzed in Western blots probed with anti-phospho-tyrosine antibodies and separately with anti-β-catenin antibodies. […]

COc1cc2ncnc(Nc3cccc(Cl)c3)c2cc1OC [AG1478, reference compound]
PTN-stimulated activation of Akt (phospho-Akt serine 473) [1]: effectively prevented

C[C@@H](Oc1cc(-c2cnn(C3CCNCC3)c2)cnc1N)c1c(Cl)ccc(F)c1Cl [PF2341066]
proliferation of MDA-MB-231 cells ([2]; 1 nM-1 μM, ten days): dose-dependent block in proliferation
growth of MDA-MB-231 cells ([2]; 1 μM): effectively prevented growth
proliferation of T47D cells ([3]; 1 nM-1 μM, ten days): dose-dependent block in proliferation
reduction of T47D cell growth ([3]; 1 μM): about 13 fold
reduction of tumor burden ([4]; day 22): about 3.5 fold
reduction of tumor burden ([4]; end of the experiment): about 3 fold

CC(C)(C)n1nc(-c2ccc(Cl)cc2)c2c(N)ncnc21 [PP2, reference compound]
inhibition of PTN-stimulated tyrosine phosphorylation of β-catenin [5]: failed to inhibit

CC(=O)N[C@@H](CSC(=O)[C@]1([C@@H](O)C(C)C)NC(=O)[C@H](C)[C@@H]1O)C(=O)O [lactacystin, reference compound]
ubiquitinated β-catenin levels [6]: remained at the level in HUVS cells not stimulated with PTN

epidermal growth factor [EGF]
tyrosine phosphorylation of ALK [7]: marked increase
increase in tyrosine phosphorylation of β-catenin ([8]; 1 minute after stimulation with EGF): about 11 fold
tyrosine phosphorylation of β-catenin ([8]; 5 minutes after stimulation with EGF): Even higher levels

sodium pervanadate [reference compound]
increase in tyrosine phosphorylation of β-catenin ([8]; stimulated with sodium pervanadate): about 17 fold
